Experimental data from patent US20100292214A1, “Compounds with Antiparasitic Activity, Applications thereof to the Treatment of Infectious Diseases Caused by Apicomplexans” (commissariat a l'Energie Atomique, priority 2007, published 2010).
Where a name gives a salt, the structure may show the parent alone. Read-outs that look alike come from different tables or passages of the source.

Legend:
[1] = tested on: asynchronous 3D7 chloroquine-sensitive P. falciparum infected red blood cells; assay: Labeled hypoxanthine incorporation assay (in vitro anti-malarial activity); type: cell-based; settings: 3D7 chloroquine-sensitive strain, infected RBC, 48 h contact, [3H]-hypoxanthine incorporation, two independent experiments in duplicates, read-out: IC50 assessed on Plasmodium Falciparum
[2] = tested on: Toxoplasma gondii RH-β1 strain; assay: microbe, parasite or virus in culture; type: cell-based; settings: read-out: IC50 assessed on Toxoplama Gondii
[3] = Plasmodium falciparum, 3D7, Erythrocyte

Structure (SMILES) | IC50 [1, 3] [µM] | IC50 ([2]; Toxoplasma gondii) [µM] | IC50 ([1]; hydrochloride salt) [µM] | IC50 ([2]; hydrochloride salt) [µM]
C[C@@H](COC(=O)N1CCC(n2c(=O)[nH]c3cc4ccccc4cc32)CC1)N(Cc1ccccc1)Cc1ccccc1 [Compound 12, (S)-2-(dibenzylamino)propyl 4-(1,2-dihydro-2-oxonaphtho[2,3-d]imidazol-3-yl)piperidine-1-carboxylate] | 7.2 | 0.75 |  | 
C[C@@H](COC(=O)N1CCCC(n2c(=O)[nH]c3ccccc32)CC1)N(Cc1ccccc1)Cc1ccccc1 (stereo partly drawn) [Compound 13, (S)-2-(dibenzylamino)propyl 4-(1,2-dihydro-2-oxobenzo[d]imidazol-3-yl)azepane-1-carboxylate] | 10.7 | 5 |  | 
Cc1nc2ccccc2n1C1CCN(C(=O)OC[C@H](C)N(Cc2ccccc2)Cc2ccccc2)CC1 [Compound 15, (S)-2-(dibenzylamino)propyl 4-(2-methyl-1H-benzo[d]imidazol-1-yl)piperidine-1-carboxylate] | 2.42 | 3.41 |  | 
C[C@@H](COC(=O)N1CCCC(n2c(=O)[nH]c3ccccc32)C1)N(Cc1ccccc1)Cc1ccccc1 (stereo partly drawn) [Compound 16, (S)-2-(dibenzylamino)propyl 3-(1,2-dihydro-2-oxobenzo[d]imidazol-3-yl)piperidine-1-carboxylate] | 2.81 | 2.35 |  | 
C[C@@H](COC(=O)N1CCC(n2c(=O)[nH]c3ccccc32)C1)N(Cc1ccccc1)Cc1ccccc1 (stereo partly drawn) [Compound 17, (S)-2-(dibenzylamino)propyl 3-(1,2-dihydro-2-oxobenzo[d]imidazol-3-yl)pyrrolidine-1-carboxylate] | 7.18 | 3.3 |  | 
CCOC(=O)C1CN(C(=O)OC[C@H](C)N(Cc2ccccc2)Cc2ccccc2)CCC1n1c(=O)[nH]c2ccccc21 (stereo partly drawn) [Compound 18, 1-(S)-2-(dibenzylamino)propyl 3-ethyl 4-(1,2-dihydro-2-oxobenzo[d]imidazol-3-yl)piperidine-1,3-dicarboxylate] | 1.52 | 2.81 |  | 
C[C@@H](COC(=O)N1CCC(Cn2c(=O)[nH]c3ccccc32)CC1)N(Cc1ccccc1)Cc1ccccc1 [Compound 19, (S)-2-(dibenzylamino)propyl 4-((1,2-dihydro-2-oxobenzo[d]imidazol-3-yl)methyl)piperidine-1-carboxylate] | 5.79 | 3.41 |  | 
C[C@@H](COC(=O)N1CCC(CCn2c(=O)[nH]c3ccccc32)CC1)N(Cc1ccccc1)Cc1ccccc1 [Compound 20, (S)-2-(dibenzylamino)propyl 4-(2-(1,2-dihydro-2-oxobenzo[d]imidazol-3-yl)ethyl)piperidine-1-carboxylate] | 6.84 | 4.2 |  | 
C[C@@H](COC(=O)N1CCCC1Cn1c(=O)[nH]c2ccccc21)N(Cc1ccccc1)Cc1ccccc1 (stereo partly drawn) [Compound 23, (S)-2-(dibenzylamino)propyl 2-((1,2-dihydro-2-oxobenzo[d]imidazol-3-yl)methyl)pyrrolidine-1-carboxylate] | 7.27 | 3.1 |  | 
C[C@@H](COC(=O)N1CCC(n2c(=O)[nH]c3ccccc32)CC1)N(Cc1ccccc1)Cc1ccccc1 [Compound 25, (S)-2-(dibenzylamino)propyl 4-(1,2-dihydro-2-oxobenzo[d]imidazol-3-yl)piperidine-1-carboxylate] | 4.9 | 14 |  | 
O=C(OC[C@H](Cc1ccccc1)N(Cc1ccccc1)Cc1ccccc1)N1CCC(n2c(=O)[nH]c3ccccc32)CC1 [Compound 26, (S)-2-(dibenzylamino)-3-phenylpropyl 4-(1,2-dihydro-2-oxobenzo[d]imidazol-3-yl)piperidine-1-carboxylate] | 1.4 | 4.8 |  | 
C[C@@H](COC(=O)N1CC=C(n2c(=O)[nH]c3ccccc32)CC1)N(Cc1ccccc1)Cc1ccccc1 [Compound 28, (S)-2-(dibenzylamino)propyl 5,6-dihydro-4-(1,2-dihydro-2-oxobenzo[d]imidazol-3-yl)pyridine-1(2H)-carboxylate] | 4.1 | 3.5 |  | 
O=C(OCCCN(Cc1ccccc1)Cc1ccccc1)N1CCC(n2c(=O)[nH]c3ccccc32)CC1 [Compound 29, 3-(dibenzylamino)propyl 4-(1,2-dihydro-2-oxobenzo[d]imidazol-3-yl)piperidine-1-carboxylate] | 3.6 | 2.5 |  | 
O=C(OCCN(Cc1ccccc1)Cc1ccccc1)N1CCC(n2c(=O)[nH]c3ccccc32)CC1 [Compound 30, 2-(dibenzylamino)ethyl 4-(1,2-dihydro-2-oxobenzo[d]imidazol-3-yl)piperidine-1-carboxylate] | 6.9 | 7.5 |  | 
O=C(OCCC(c1ccccc1)c1ccccc1)N1CCC(n2c(=O)[nH]c3ccccc32)CC1 [Compound 36, 3,3-diphenylpropyl 4-(1,2-dihydro-2-oxobenzo[d]imidazol-3-yl)piperidine-1-carboxylate] | 8.54 | 1.2 |  | 
O=C(OC[C@H](Cc1ccccc1)N(Cc1ccccc1)Cc1ccccc1)N1CCC(n2c(=O)n(Cc3ccccc3)c3ccccc32)CC1 [Compound 37, (S)-2-(dibenzylamino)-3-phenylpropyl 4-(1-benzyl-1,2-dihydro-2-oxobenzo[d]imidazol-3-yl)piperidine-1-carboxylate, hydrochloride salt] |  |  | 0.873 | 1.8

Structure (SMILES) | IC50 [1, 3] [µM] | IC50 ([2]; Toxoplasma gondii) [µM] | IC50 ([1]; hydrochloride salt) [µM] | IC50 ([2]; hydrochloride salt) [µM]
C[C@@H](COC(=O)N1CCC(n2c(=O)[nH]c3cc(Cl)ccc32)CC1)N(Cc1ccccc1)Cc1ccccc1 [Compound 38, (S)-2-(dibenzylamino)propyl 4-(6-chloro-1,2-dihydro-2-oxobenzo[d]imidazol-3-yl)piperidine-1-carboxylate] | 4.68 | 1 |  | 
O=C(OCCC1CCN(Cc2ccccc2)CC1)N1CCC(n2c(=O)[nH]c3ccccc32)CC1 [Compound 40, 2-(1-benzylpiperidin-4-yl)ethyl 4-(1,2-dihydro-2-oxobenzo[d]imidazol-3-yl)piperidine-1-carboxylate] | 8.16 | 0.98 |  | 
CCN(CCOC(=O)N1CCC(n2c(=O)[nH]c3ccccc32)CC1)c1ccccc1 [Compound 41, 2-(ethyl(phenyl)amino)ethyl 4-(2-oxo-2,3-dihydro-1H-benzo[d]imidazol-1-yl)piperidine-1-carboxylate] | 24.4 | 1.8 |  | 
O=C(OC[C@@H]1CCCN1Cc1ccccc1)N1CCC(n2c(=O)[nH]c3ccccc32)CC1 [Compound 42, ((S)-1-benzylpyrrolidin-2-yl)methyl 4-(1,2-dihydro-2-oxobenzo[d]imidazol-3-yl)piperidine-1-carboxylate] | 18.8 | 5 |  | 
O=C(OCC(c1ccccc1)c1ccccc1)N1CCC(n2c(=O)[nH]c3ccccc32)CC1 [Compound 43, 2,2-diphenylethyl 4-(1,2-dihydro-2-oxobenzo[d]imidazol-3-yl)piperidine-1-carboxylate] | 8.33 | 12 |  | 
C[C@@H](COC(=O)N1CCC(c2c[nH]c3ccccc23)CC1)N(Cc1ccccc1)Cc1ccccc1 [Compound 44, (S)-2-(dibenzylamino)propyl 4-(1H-indol-3-yl)piperidine-1-carboxylate] | 5.21 | 1.85 |  | 
O=c1[nH]c2ccccc2n1C1CCN(C(=S)OCCN(Cc2ccccc2)Cc2ccccc2)CC1 [Compound 46, O-2-(dibenzylamino)ethyl 4-(1,2-dihydro-2-oxobenzo[d]imidazol-3-yl)piperidine-1-carbothioate] | 2.84 | 0.181 |  | 
O=c1[nH]c2ccccc2n1C1CCN(C(=S)OCCOCc2ccccc2)CC1 [Compound 47, O-2-(benzyloxy)ethyl 4-(1,2-dihydro-2-oxobenzo[d]imidazol-3-yl)piperidine-1-carbothioate] | 23.2 | 1.13 |  | 
C[C@@H](COC(=S)N1CCC(n2c(=O)[nH]c3ccccc32)CC1)N(Cc1ccccc1)Cc1ccccc1 [Compound 48, O—(S)-2-(dibenzylamino)propyl 4-(1,2-dihydro-2-oxobenzo[d]imidazol-3-yl)piperidine-1-carbothioate] | 2.95 | 1.18 |  | 
O=c1[nH]c2ccccc2n1C1CCN(CCCN(Cc2ccccc2)Cc2ccccc2)CC1 [Compound 49, 1-(1-(3-(dibenzylamino)propyl)piperidin-4-yl)-1H-benzo[d]imidazol-2(3H)-one] | 1.27 | 0.8 |  | 
C[C@@H](CN1CCC(n2c(=O)[nH]c3ccccc32)CC1)N(Cc1ccccc1)Cc1ccccc1 [Compound 50, 1-(1-((S)-2-(dibenzylamino)propyl)piperidin-4-yl)-1H-benzo[d]imidazol-2(3H)-one] | 3.34 | 7 |  | 
O=c1[nH]c2ccccc2n1C1CCN(C[C@H](Cc2ccccc2)N(Cc2ccccc2)Cc2ccccc2)CC1 [Compound 51, 1-(1-((S)-2-(dibenzylamino)-3-phenylpropyl)piperidin-4-yl)-1H-benzo[d]imidazol-2(3H)-one] | 2.11 | 4 |  | 
O=c1[nH]c2ccccc2n1C1CCN(CCN(Cc2ccccc2)Cc2ccccc2)CC1 [Compound 52, 1-(1-(2-(dibenzylamino)ethyl)piperidin-4-yl)-1H-benzo[d]imidazol-2(3H)-one] | 1.57 | 2 |  | 
O=C(OC[C@H](Cc1ccccc1)N(Cc1ccccc1)Cc1ccccc1)N1CCC(n2c(=O)n(S(=O)(=O)c3ccccc3)c3ccccc32)CC1 [Compound 53, (S)-2-(dibenzylamino)-3-phenylpropyl 4-(1,2-dihydro-3-phenylsulfonyl-2-oxobenzo[d]imidazol-1-yl)piperidine-1-carboxylate] | 1.94 | 22 |  | 
C[C@@H](COC(=O)N1CCC(n2c(=O)n(S(=O)(=O)c3ccccc3)c3ccccc32)CC1)N(Cc1ccccc1)Cc1ccccc1 [Compound 54, (S)-2-(dibenzylamino)propyl 4-(2-oxo-3-phenylsulfonyl-2,3-dihydro-1H-benzo[d]imidazol-1-yl)piperidine-1-carboxylate] | 0.23 | 1.68 |  | 
